Laboratory results: patent publication US20190367516A1 (Bayer Pharma Aktiengesellschaft, priority 2015, published 2019)
Read-outs that look alike come from different tables or passages of the source.

Tests used:
human M2 receptor [1] = target: T1, human M2 receptor (Homo sapiens, UniProt P08172); details: for Emax: read-out: Efficiency, boosting of the acetylcholine effect at EC20 acetylcholine concentration
T1 sequence (P08172 1-466): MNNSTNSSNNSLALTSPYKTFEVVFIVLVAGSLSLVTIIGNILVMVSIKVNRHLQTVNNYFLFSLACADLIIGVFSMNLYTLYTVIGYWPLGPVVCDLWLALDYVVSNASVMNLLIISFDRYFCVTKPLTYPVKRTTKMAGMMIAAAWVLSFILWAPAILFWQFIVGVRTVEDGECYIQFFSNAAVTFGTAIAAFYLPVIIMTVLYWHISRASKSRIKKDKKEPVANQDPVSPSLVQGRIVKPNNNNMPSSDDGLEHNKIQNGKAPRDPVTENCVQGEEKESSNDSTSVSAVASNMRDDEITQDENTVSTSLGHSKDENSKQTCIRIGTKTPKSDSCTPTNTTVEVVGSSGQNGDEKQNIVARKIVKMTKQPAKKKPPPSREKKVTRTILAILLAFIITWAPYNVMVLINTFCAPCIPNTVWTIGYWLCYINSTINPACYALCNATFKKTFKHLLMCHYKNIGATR

human M2 receptor [2] = target: T1, human M2 receptor; assay type: cell-based; details: α >1 = positive cooperativity
[3] = Receptor activity EC50, allosteric potency at EC20 acetylcholine, M2-GIRK1/4 reporter cells, in some cases mean of two or more determinations
[4] = shift of acetylcholine dose-response curve (Allosteric EC50 shift)
[5] = Receptor activity EC50, M2-GIRK1/4 activation test, acetylcholine at EC20, allosteric potency, in some cases mean values from two or more determinations
[6] = shift in the acetylcholine dose-response curve (Allosteric EC50 shift, GraphPad PRISM)

Row | SMILES | EC50 (human M2 receptor [1]; [3]) [µM] | Cooperativity (alpha factor) (human M2 receptor [2]; [4]) | EC50 (human M2 receptor [1]; [5]) [µM] | Cooperativity (alpha factor) (human M2 receptor [2]; [6]) | other results
1 | CC[C@@H](NC(=O)c1cn(-c2c(F)cccc2F)c2nc(N3CC4CC4(O)C3)ccc2c1=O)C(F)(F)F (single isomer, unassigned) [Example 306] | – | – | 0.052 | 21 | –
2 | CC[C@H](NC(=O)c1cn(-c2ccccc2F)c2nc(N(C)C)ccc2c1=O)C(F)(F)F [Example 203, 7-(Dimethylamino)-1-(2-fluorophenyl)-4-oxo-N-[(2S)-1,1,1-trifluorobutan-2-yl]-1,4-dihydro-1,8-naphthyridine-3-carboxamide] | – | – | 0.062 | 8 | –
3 | CC[C@H](NC(=O)c1cn(-c2c(F)cc(F)cc2F)c2nc(N3C[C@@H](C)NC3=O)ccc2c1=O)C(F)(F)F [Example 456, 7-[(4R)-4-Methyl-2-oxoimidazolidin-1-yl]-4-oxo-N-[(2S)-1,1,1-trifluorobutan-2-yl]-1-(2,4,6-trifluorophenyl)-1,4-dihydro-1,8-naphthyridine-3-carboxamide] | 0.009 | 32 | – | – | Emax (human M2 receptor [1]; M2-GIRK1/4 reporter cells): 92%
4 | CCC1CCN(c2ccc3c(=O)c(C(=O)N[C@@H](C4CC4)C(F)(F)F)cn(-c4c(F)cc(F)cc4F)c3n2)C(=O)N1 (mixture of isomers) [Example 446, N-[(1 S)-1-Cyclopropyl-2,2,2-trifluoroethyl]-7-[4-ethyl-2-oxotetrahydropyrimidin-1(2H)-yl]-4-oxo-1-(2,4,6-trifluorophenyl)-1,4-dihydro-1,8-naphthyridine-3-carboxamide] | 0.05 | 21 | – | – | Emax (human M2 receptor [1]; M2-GIRK1/4 reporter cells): 85%
5 | CCC(COC(F)(F)F)NC(=O)c1cn(-c2c(F)cc(F)cc2F)c2nc(N3C[C@@H](O)CC3=O)ccc2c1=O (single isomer, unassigned) [Example 412] | 0.016 | 34 | – | – | Efficiency (human M2 receptor [1]; boosting of the acetylcholine effect at EC20 acetylcholine concentration, M2-GIRK1/4 reporter cells): 98.0%
6 | O=C(NC12CC3CC(CC(C3)C1)C2)c1cn(-c2ccc(F)cc2F)c2nc(N3CCOC3=O)ccc2c1=O [Example 128, 1-(2,4-Difluorophenyl)-4-oxo-7-(2-oxo-1,3-oxazolidin-3-yl)-N-(tricyclo[3.3.1.1^3,7]dec-1-yl)-1,4-dihydro-1,8-naphthyridine-3-carboxamide] | – | – | 0.057 | 18 | –
7 | CC[C@@H](NC(=O)c1cn(-c2ccc(F)cc2F)c2nc(N3CCC3=O)ccc2c1=O)C(F)(F)F [Example 205, 1-(2,4-Difluorophenyl)-4-oxo-7-(2-oxoazetidin-1-yl)-N-[(2R)-1,1,1-trifluorobutan-2-yl]-1,4-dihydro-1,8-naphthyridine-3-carboxamide] | – | – | 0.105 | 4 | –
8 | O=C(NC(c1ccccc1Cl)C(F)(F)F)c1cn(-c2ccc(F)cc2F)c2nc(N3C[C@@H](O)CC3=O)ccc2c1=O (mixture of isomers) [Example 211, N-[1-(2-Chlorophenyl)-2,2,2-trifluoroethyl]-1-(2,4-difluorophenyl)-7-[(4S)-4-hydroxy-2-oxopyrrolidin-1-yl]-4-oxo-1,4-dihydro-1,8-naphthyridine-3-carboxamide] | – | – | 0.021 | 35 | –
9 | CC[C@@H](NC(=O)c1cn(-c2ccc(F)cc2F)c2nc(N3CC(C)CC3=O)ccc2c1=O)C(F)(F)F (mixture of isomers) [Example 301, 1-(2,4-Difluorophenyl)-7-[4-methyl-2-oxopyrrolidin-1-yl]-4-oxo-N-[(2R)-1,1,1-trifluorobutan-2-yl]-1,4-dihydro-1,8-naphthyridine-3-carboxamide] | – | – | 0.03 | 12 | –

Second part, led by results:

Row | EC50 (human M2 receptor [1]; [3]) [µM] | Cooperativity (alpha factor) (human M2 receptor [2]; [4]) | EC50 (human M2 receptor [1]; [5]) [µM] | Cooperativity (alpha factor) (human M2 receptor [2]; [6]) | SMILES | other results
10 | 0.005 | 32 | – | – | O=C(NC(CC(F)(F)F)C(F)(F)F)c1cn(-c2c(F)cc(F)cc2F)c2nc(N3C[C@@H](O)CC3=O)ccc2c1=O (single isomer, unassigned) [Example 607] | Emax (human M2 receptor [1]; M2-GIRK1/4 reporter cells): 100%
11 | – | – | 0.034 | 8 | CCC(NC(=O)c1cn(-c2ccccc2F)c2nc(N(C)C)ccc2c1=O)C(F)(F)F (racemic) [Example 204, rac-7-(Dimethylamino)-1-(2-fluorophenyl)-4-oxo-N-[1,1,1-trifluorobutan-2-yl]-1,4-dihydro-1,8-naphthyridine-3-carboxamide] | –
12 | – | – | – | 32 | CC[C@@H](NC(=O)c1cn(-c2c(F)cc(F)cc2F)c2nc(N3CCC(O)C3=O)ccc2c1=O)C(F)(F)F (stereo partly drawn) [Example 282, 7-[3-Hydroxy-2-oxopyrrolidin-1-yl-4-oxo-N-[(2R)-1,1,1-trifluorobutan-2-yl]-4-oxo-N-trifluorobutan-2-yl]-1-(2,4,6-trifluorophenyl)-1,4-dihydro-1,8-naphthyridine-3-carboxamide] | EC50 (human M2 receptor [1]; read-out: Receptor activity EC50, M2-GIRK1/4 activation test, acetylcholine at EC20, allosteric potency, in some cases mean values from two or more determinations): 0.021 µM
13 | 0.024 | 53 | – | – | CC(C)(NC(=O)c1cn(-c2c(F)cc(F)cc2F)c2nc(N3CC[C@@H](O)C3=O)ccc2c1=O)C(F)(F)F [Example 488, 7-[(3R)-3-Hydroxy-2-oxopyrrolidin-1-yl]-4-oxo-N-(1,1,1-trifluoro-2-methylpropan-2-yl)-1-(2,4,6-trifluorophenyl)-1,4-dihydro-1,8-naphthyridine-3-carboxamide] | Emax (human M2 receptor [1]; M2-GIRK1/4 reporter cells): 96%
14 | 0.005 | 44 | – | – | CC(C)C(NC(=O)c1cn(-c2c(F)cc(F)cc2F)c2nc(N3C[C@@H](O)[C@H](O)C3)ccc2c1=O)C(C)C [Example 474, 7-[(3R,4R)-3,4-Dihydroxypyrrolidin-1-yl]-N-(2,4-dimethylpentan-3-yl)-4-oxo-1-(2,4,6-trifluorophenyl)-1,4-dihydro-1,8-naphthyridine-3-carboxamide] | Emax (human M2 receptor [1]; M2-GIRK1/4 reporter cells): 100%
15 | – | – | 0.01 | 7 | CN(C)c1ccc2c(=O)c(C(=O)NC(C(C)(C)C)C(F)(F)F)cn(-c3ccc(F)cc3F)c2n1 (stereo in doubt) [Example 132, 1-(2,4-Difluorophenyl)-7-(dimethylamino)-4-oxo-N-[(2S)-1,1,1-trifluoro-3,3-dimethylbutan-2-yl]-1,4-dihydro-1,8-naphthyridine-3-carboxamide] | –
16 | – | – | 0.063 | 25 | CCC(NC(=O)c1cn(-c2ccc(F)cc2F)c2nc(N3CCN(C(=O)OC)CC3)ccc2c1=O)C(F)(F)F (single isomer, unassigned; enantiomer a) [Example 24, ent-Methyl 4-{8-(2,4-difluorophenyl)-5-oxo-6-[(1,1,1-trifluorobutan-2-yl)carbamoyl]-5,8-dihydro-1,8-naphthyridin-2-yl}piperazine-1-carboxylate (Enantiomer A)] | –
17 | – | – | 0.036 | 50 | CC[C@@H](NC(=O)c1cn(-c2ccc(F)cc2F)c2nc(N3C[C@@H](OC)CC3=O)ccc2c1=O)C(F)(F)F [Example 193, 1-(2,4-Difluorophenyl)-7-[(4S)-4-methoxy-2-oxopyrrolidin-1-yl]-4-oxo-N-[(2R)-1,1,1-trifluorobutan-2-yl]-1,4-dihydro-1,8-naphthyridine-3-carboxamide] | –
18 | – | – | 0.115 | 23 | O=C(N[C@H](c1ccccc1Cl)C(F)(F)F)c1cn(-c2ccc(F)cc2F)c2nc(N3CCCC(O)C3=O)ccc2c1=O (single isomer, unassigned) [Example 208] | –
19 | – | – | 0.13 | 6 | CC[C@@H](NC(=O)c1cn(-c2ccc(F)cc2F)c2nc(N3CCNC3=O)ccc2c1=O)C(F)(F)F [Example 320, 1-(2,4-Difluorophenyl)-4-oxo-7-(2-oxoimidazolidin-1-yl)-N-[(2R)-1,1,1-trifluorobutan-2-yl]-1,4-dihydro-1,8-naphthyridine-3-carboxamide] | –
